Data published in patent publication EP1247803A2, “Indolinone compounds suitable for modulation of protein kinases” (Sugen, Inc., priority 1996, dated 1998).

How the values were obtained:
[1] = target: T1, EGFR (Homo sapiens, UniProt P00533); test: EGFR ELISA assay (in vitro kinase activity, EGFR captured from A431 cell lysate); type: biochemical; design: concentration or dose not given beside the values
T1 construct: Add 7 ug A431 cell lysate per well (EGFR source); endogenous in cells; host or cells: A431
T1 sequence (P00533 25-1210): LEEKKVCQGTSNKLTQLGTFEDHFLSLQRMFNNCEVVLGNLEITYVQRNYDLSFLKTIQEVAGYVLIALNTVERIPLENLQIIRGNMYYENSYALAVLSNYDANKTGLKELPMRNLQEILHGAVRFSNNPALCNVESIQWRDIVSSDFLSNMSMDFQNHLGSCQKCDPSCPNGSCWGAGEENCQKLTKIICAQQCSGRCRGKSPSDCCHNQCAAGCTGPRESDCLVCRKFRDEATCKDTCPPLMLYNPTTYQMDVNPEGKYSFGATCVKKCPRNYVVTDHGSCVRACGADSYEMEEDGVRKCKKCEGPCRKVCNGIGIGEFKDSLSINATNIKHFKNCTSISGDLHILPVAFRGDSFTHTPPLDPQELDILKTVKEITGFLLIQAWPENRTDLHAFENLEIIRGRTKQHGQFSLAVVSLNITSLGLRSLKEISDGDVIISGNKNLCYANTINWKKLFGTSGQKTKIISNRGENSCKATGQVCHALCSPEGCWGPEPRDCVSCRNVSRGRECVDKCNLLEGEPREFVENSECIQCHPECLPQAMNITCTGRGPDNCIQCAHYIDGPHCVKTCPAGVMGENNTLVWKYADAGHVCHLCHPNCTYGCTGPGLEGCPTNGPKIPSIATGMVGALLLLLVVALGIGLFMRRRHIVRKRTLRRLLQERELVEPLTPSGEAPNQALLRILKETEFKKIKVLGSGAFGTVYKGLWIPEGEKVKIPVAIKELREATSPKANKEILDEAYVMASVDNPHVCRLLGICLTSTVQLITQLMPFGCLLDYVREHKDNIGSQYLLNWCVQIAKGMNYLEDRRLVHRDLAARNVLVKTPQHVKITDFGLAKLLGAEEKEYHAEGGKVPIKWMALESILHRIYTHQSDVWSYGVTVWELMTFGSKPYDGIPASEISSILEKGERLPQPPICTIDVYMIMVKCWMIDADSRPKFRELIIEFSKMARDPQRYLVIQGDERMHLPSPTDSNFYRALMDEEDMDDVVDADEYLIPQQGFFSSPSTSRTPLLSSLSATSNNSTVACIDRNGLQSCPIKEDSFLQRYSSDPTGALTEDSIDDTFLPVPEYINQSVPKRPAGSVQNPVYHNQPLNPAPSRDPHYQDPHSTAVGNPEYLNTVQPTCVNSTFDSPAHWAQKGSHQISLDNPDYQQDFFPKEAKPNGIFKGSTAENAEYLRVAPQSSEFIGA
Procedure, shortened: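 EGFR from A431 lysate was captured on anti-EGFR antibody-coated plates and preincubated with compounds for 30 min. Autophosphorylation ran 5 min with 3 uM ATP and 5 mM MnCl2 (final), stopped with 20 mM EDTA. Phosphotyrosine was detected by anti-pTyr ELISA with ABTS/H2O2, read at 410 nm.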

[2] = system: MET; test: MET biochemical kinase assay; design: species or system human; concentration or dose not given beside the values
Procedure, shortened: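 Immunocaptured MET autophosphorylation, read colorimetrically (TMB) via HRP anti-phosphotyrosine antibody. Kinase reaction initiated with buffer containing ATP and divalent metals after compound addition to plate-bound receptor from lysates.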

| SMILES | Biochem EGFR %Inhibition [1] | Met Kinase % Inhibition [2] |
| --- | --- | --- |
| CCN(CC)c1ccc(C=C2C(=O)Nc3ccc(S(=O)(=O)NC)cc32)cc1 [10727/D02] | 22.6% | 51.6% |
| Cc1cn(C)cc1C=C1C(=O)Nc2ccc(CCCl)cc21 [10726/G06] | -37.5% | 19.9% |
| COc1cccc(C=C2C(=O)Nc3ccc(Br)c(C)c32)c1OC [10727/C11] | -15.6% | 14.5% |
| O=C1Nc2c(Br)cc(Br)cc2C1=Cc1c[nH]c2ccccc12 [10717/A06] | -7.8% | 31.7% |
| CCc1ccc(C=C2C(=O)Nc3ccc(Br)c(C)c32)s1 [10726/C10] | 2.8% | 36.7% |
| Cc1c(Br)ccc2c1C(=Cc1cc(Cl)cc(Br)c1O)C(=O)N2 [10727/C04] | 27.6% | 81.7% |
| Cc1c(Br)ccc2c1C(=C1C(=O)Nc3ccc(F)cc31)C(=O)N2 [10726/C08] | 7.5% | 46.8% |
| N#Cc1cccc(C=C2C(=O)Nc3ccc(I)cc32)c1 [10727/B08] | 47.4% | 90.7% |
| Cc1c(Br)ccc2c1C(=Cc1cc(O)ccc1O)C(=O)N2 [10727/C10] | 85.3% | 94.4% |
| CCN(CC)c1ccc(C=C2C(=O)Nc3c(Br)cc(Br)cc32)cc1 [10727/A02] | 3.2% | 52.0% |
| COc1ccc(C=C2C(=O)Nc3ccc(CCCl)cc32)cc1 [10726/G11] | 1.3% | 11.8% |
| O=C1Nc2ccc(CCCl)cc2C1=Cc1ccc[nH]1 [10717/G09] | 24.9% | 19.1% |
| CCOC(=O)c1[nH]c(C=C2C(=O)Nc3ccc(CCCl)cc32)c(C(=O)OC)c1C [10726/G03] | -17.2% | 26.8% |
| O=C1Nc2ccc(S(=O)(=O)Nc3ccc(C(F)(F)F)cc3)cc2C1=Cc1cc(O)c2c(c1O)CCCC2 [10726/E07] | 20.5% | 84.0% |
| Cc1cc(C=C2C(=O)Nc3ccc(S(=O)(=O)Nc4ccc(C(F)(F)F)cc4)cc32)cc(C(C)(C)C)c1O [10726/E04] | 53.0% | 85.5% |
| Cc1c(Br)ccc2c1C(=Cc1ccc(C#N)cc1)C(=O)N2 [10727/C09] | 16.6% | 37.9% |
| Cc1c(Br)ccc2c1C(=Cc1coc3ccccc3c1=O)C(=O)N2 [10727/C07] | 8.4% | 36.7% |
| CNS(=O)(=O)c1ccc2c(c1)C(=Cc1cc(C)c(O)c(C(C)(C)C)c1)C(=O)N2 [10726/D04] | -20.1% | 62.9% |
| O=C1Nc2ccc(CCCl)cc2C1=Cc1ccc(F)cc1 [10717/G05] | -0.1% | 4.7% |
| Cc1ccc(C=C2C(=O)Nc3ccc(CCCl)cc32)s1 [10717/G07] | 13.1% | 7.5% |

| SMILES | Biochem EGFR %Inhibition [1] | Met Kinase % Inhibition [2] |
| --- | --- | --- |
| N#Cc1ccc(C=C2C(=O)Nc3c(Br)cc(Br)cc32)cc1 [10727/A09] | 12.7% | 44.2% |
| COc1ccc(C=C2C(=O)Nc3ccc(Br)c(C)c32)cc1 [10726/C11] | 4.8% | 34.7% |
| CNS(=O)(=O)c1ccc2c(c1)C(=Cc1cn(C)cc1C)C(=O)N2 [10726/D06] | -24.4% | 42.8% |
| CCc1ccc(C=C2C(=O)Nc3ccc(S(=O)(=O)Nc4ccc(C(F)(F)F)cc4)cc32)s1 [10726/E10] | -9.0% | 41.5% |
| O=C1Nc2ccc(CCCl)cc2C1=Cc1ccc(Br)cc1 [10717/G08] | 36.4% | 10.9% |
| COc1cccc(C=C2C(=O)Nc3c(Br)cc(Br)cc32)c1OC [10727/A11] | 6.2% | 16.5% |
| N#Cc1cccc(C=C2C(=O)Nc3c(Br)cc(Br)cc32)c1 [10727/A08] | 9.7% | 9.7% |
| Cc1c(Br)ccc2c1C(=Cc1cc3c(cc1Cl)OCO3)C(=O)N2 [10727/C06] | 5.6% | 45.2% |
| O=C1Nc2ccc(S(=O)(=O)N3CCOCC3)cc2C1=Cc1cc(O)c2c(c1O)CCCC2 [10726/F07] | 76.2% | 96.1% |
| O=C1Nc2ccc(S(=O)(=O)N3CCOCC3)cc2C1=Cc1ccc(Br)o1 [10726/F05] | -26.8% | 51.2% |
| Cc1cn(C)cc1C=C1C(=O)Nc2ccc(S(=O)(=O)Nc3ccc(C(F)(F)F)cc3)cc21 [10726/E06] | -20.6% | -7.4% |
| N#Cc1ccc(C=C2C(=O)Nc3ccc(I)cc32)cc1 [10727/B09] | 31.7% | 81.9% |
| Cn1cccc1C=C1C(=O)Nc2ccc(CCCl)cc21 [10717/G04] | 6.0% | 10.9% |
| COc1ccc(C=C2C(=O)Nc3ccc(S(=O)(=O)N4CCOCC4)cc32)cc1 [10726/F11] | -16.8% | 57.6% |
| Cc1cc(C=C2C(=O)Nc3ccc(S(=O)(=O)N4CCOCC4)cc32)cc(C(C)(C)C)c1O [10726/F04] | 33.4% | 93.5% |
| O=C1Nc2ccccc2C1=C1C(=O)Nc2ccc(CCCl)cc21 [10726/G09] | 3.3% | 42.4% |
| Cc1c(Br)ccc2c1C(=C1C(=O)Nc3ccccc31)C(=O)N2 [10726/C09] | -14.3% | 48.5% |
| O=C1Nc2c(Br)cc(Br)cc2C1=Cc1coc2ccccc2c1=O [10727/A07] | -3.7% | 61.1% |
| CCc1cc(CC)c(C=C2C(=O)Nc3ccc(S(=O)(=O)NC)cc32)[nH]1 [10727/D03] | 39.4% | 24.0% |
| Cc1cc(C=C2C(=O)Nc3ccc(CCCl)cc32)cc(C(C)(C)C)c1O [10726/G04] | 60.6% | 72.8% |

| SMILES | Biochem EGFR %Inhibition [1] | Met Kinase % Inhibition [2] |
| --- | --- | --- |
| CCOC(=O)c1[nH]c(C=C2C(=O)Nc3ccc(S(=O)(=O)Nc4ccc(C(F)(F)F)cc4)cc32)c(C(=O)OC)c1C [10726/E03] | -15.9% | 62.4% |
| O=C1Nc2c(Br)cc(Br)cc2C1=Cc1cc(O)ccc1O [10727/A10] | 89.0% | 95.2% |
| O=C1Nc2ccc(F)cc2C1=C1C(=O)Nc2ccc(CCCl)cc21 [10726/G08] | -2.7% | 39.1% |
| CCN(CC)c1ccc(C=C2C(=O)Nc3ccc(I)cc32)cc1 [10727/B02] | -18.4% | 90.5% |
| CNS(=O)(=O)c1ccc2c(c1)C(=C1C(=O)Nc3ccc(F)cc31)C(=O)N2 [10726/D08] | -11.4% | 39.5% |
| CCc1ccc(C=C2C(=O)Nc3ccc(CCCl)cc32)s1 [10726/G10] | 6.0% | 26.8% |
| O=C1Nc2ccc(I)cc2C1=Cc1ccccc1Sc1ccc(Cl)cc1 [10727/B05] | 39.0% | 83.3% |
| O=C1Nc2ccccc2C1=C1C(=O)Nc2ccc(S(=O)(=O)Nc3ccc(C(F)(F)F)cc3)cc21 [10726/E09] | 10.0% | 50.3% |
| O=C1Nc2c(Br)cc(Br)cc2C1=Cc1cc2c(cc1Cl)OCO2 [10727/A06] | -6.3% | 32.7% |
| CNS(=O)(=O)c1ccc2c(c1)C(=Cc1cc(O)c3c(c1O)CCCC3)C(=O)N2 [10726/D07] | 18.5% | 84.6% |
| CCc1ccc(C=C2C(=O)Nc3ccc(S(=O)(=O)NC)cc32)s1 [10726/D10] | -6.5% | 35.3% |
| Cc1c(Br)ccc2c1C(=Cc1cccc(C#N)c1)C(=O)N2 [10727/C08] | 3.6% | 47.8% |
| O=C1Nc2ccc(F)cc2C1=C1C(=O)Nc2ccc(S(=O)(=O)Nc3ccc(C(F)(F)F)cc3)cc21 [10726/E08] | -8.5% | 58.9% |
| COc1cccc(O)c1C=C1C(=O)Nc2ccc(CCCl)cc21 [10717/G10] | 2.4% | 30.9% |
| CCOC(=O)c1[nH]c(C=C2C(=O)Nc3ccc(S(=O)(=O)NC)cc32)c(C(=O)OC)c1C [10726/D03] | -5.4% | 52.1% |
| Cc1c(Br)ccc2c1C(=Cc1ccccc1Sc1ccc(Cl)cc1)C(=O)N2 [10727/C05] | 11.8% | 8.9% |
| O=C1Nc2ccc(I)cc2C1=Cc1cc2c(cc1Cl)OCO2 [10727/B06] | 40.7% | 91.0% |
| O=C1Nc2c(Br)cc(Br)cc2C1=Cc1cc(Cl)cc(Br)c1O [10727/A04] | 28.2% | 80.9% |
| COc1ccc(C=C2C(=O)Nc3ccc(S(=O)(=O)Nc4ccc(C(F)(F)F)cc4)cc32)cc1 [10726/E11] | -14.1% | 34.5% |
| CCN(CC)c1ccc(C=C2C(=O)Nc3ccc(Br)c(C)c32)cc1 [10727/C02] | -28.5% | 73.8% |
